Reference: patent US20070281865A1, “MULTI-FUNCTIONAL SPACER FOR GLYCANS” (priority 2006, published 2007)
Entries after “also recorded” stand apart in the source; their conditions may differ.

How the values were obtained:
[1] = pKa of deprotected spacer; type: physicochemical
[2] = system: anti-carbohydrate antibodies in sera of metastatic breast cancer patients; test: Sera of metastatic breast cancer patients on glycan array; type: binding, Human; settings: sera 1:25; 9 MBC patients, 10 healthy
Procedure: Individual (not pooled) sera were collected from 9 patients who were diagnosed with metastatic breast cancer (MBC). Blood samples were collected before treatment, so that therapeutic intervention would not interfere with patient immune responses. One patient with breast cancer but with good prognosis (IDC, Stage 1) was also included in the study. As control, or “healthy” sera, sera from ten healthy individuals, 5 female and 5 male, with no known malignancies was collected.
(§1) Sera were diluted 1:25 with PBS containing 3% BSA, and placed on the glycan array slide in humidified chamber at room temperature for 90 min. The glycan array slide was then rinsed gently with PBS/0.05% Tween, incubated with biotinylated goat antibody against human IgG, IgM and IgA, rinsed in PBS/0.05% Tween, and incubated with streptavidin-Alexa488 fluorescent dye. Following rinses in PBS/0.05% Tween and H2O, glycan array slides were dried and scanned using the commercial DNA array scanner. […] Signal to background was typically greater 50:1 and no background subtractions were performed. Data were plotted using MS Excel software.

[3] = system: antibodies in serum of patients who received porcine fetal pancreas islet-like cell clusters; test: Sera of xenotransplant recipients on glycan array; type: binding, Human; settings: before and 1, 6, 12 months after transplantation
Procedure: In 1991-1994, several diabetic (I) patients received transplantation of porcine fetal pancreas islet-like cell clusters (ICC). See, Groth, C. G. et al. Transplantation of porcine fetal pancreas to diabetic patients, The Lancet 344: 1402-4 (1994). The inventor analyzed serum from three of these patients before transplant (t=0), 1 months after (t=1), 6 months after (t=2) and 12 months after (t=3) transplant.
as §1, with “as needed” for “1:25”

[4] = system: Human anti-HIV 2G12 monoclonal antibody; test: 2G12 binding on glycan array; settings: for binding of 2G12 antibody (in words): glycan array, 2G12 30 μg/mL pre-complexed with goat anti-human-IgG-FITC
Description: Glycan array fabrication.
Glycan Binding Protein binding assay. […] Saliva samples were similarly handled.
Image acquisition and signal processing. […] Data were plotted using MS Excel software.

[5] = molecular target: Concanavalin A (Con A) (Canavalia ensiformis, UniProt P02866); settings: printing times up to 5 hours

| Molecule | serum antibodies against glycan in metastatic breast cancer patients versus healthy individuals (in words) [2] | binding of 2G12 antibody (in words) [4] | further results |
| --- | --- | --- | --- |
| C=CCCONC [Compound 1033] | – | – | pKa1 [1]: 4.8 |
| CC(=O)N[C@H]1[C@H](O[C@H]2[C@@H](O)[C@@H](CO)O[C@@H](O[C@H]3[C@H](O)[C@@H](O)C(O)O[C@@H]3CO)[C@@H]2O)O[C@H](CO)[C@@H](O)[C@@H]1O (stereo partly drawn) [LNT-2, GlcNAc-beta3-Gal-beta4-Glc-beta] | bind and higher | – | – |
| Fucose-alpha2-Gal-beta3-GalNAc-beta3-Gal-alpha-4-Gal-beta4-Glc [Globo-H] | bind and higher | – | – |
| Gal-beta3-GalNAc-beta4-[Neu5Ac-alpha3]-Gal-beta4-Glc-beta [GM1] | bind and higher | – | – |
| Galβ1-4(Fucα1-3)GlcNAcβSp [Glycan 65] | – | – | serum antibodies against glycan in xenotransplant recipients (in words) [3]: do not have antibodies; also recorded: essentially no anti-LeX antibodies are detected |
| Manα1-2Manα1-2Manα1-3(Manα1-2Manα1-3(Manα1-2Manα1-6)Manα1-6)Manβ1-4GlcNAcβ1-4GlcNAcβSp [Glycan 145] | – | – | binding of 2G12 antibody (in words) ([4]; listed as Man9): relatively weakly bound; binding of 2G12 antibody (in words) ([4]; listed as Man-9-N-glycans): smaller level of binding |
| Manα1-2Manα1-3(Manα1-2Manα1-6)ManαSp [Glycan 136] | – | strong binding | Rel. spec. (Relative binding activity) ([4]; binding of 2G12 to mannose containing glycans in the glycan array): +++ (+++ > 25,000); variation in maximal binding of con A [5]: less than 10% |
| Manα1-2Manα1-6(Manα1-3)Manα1-6(Manα1-2Manα1-3)Manβ1-4GlcNAcβ1-4GlcNAcβSp [Glycan 144] | – | strong preference for binding | – |
| Manα1-3Manα1-6(Manα1-2Manα1-3)Manβ1-4GlcNAcβ1-4GlcNAcβSp [Glycan 140] | – | did not support binding at all | – |
| Manα1-6(Manα1-2Manα1-3)Manα1-6(Manα1-2Manα1-3)Manβ1-4GlcNAcβ1-4GlcNAcβSp [Glycan 143] | – | did not support binding at all | – |
| Manα1-6(Manα1-3)Manα1-6(Manα1-2Manα1-3)Manβ1-4GlcNAcβ1-4GlcNAcβSp [Glycan 142] | – | did not support binding at all | – |
| Neu5Acα2-6GalNAcα- | significantly higher levels | – | – |
| Neu5Gc(2-6)GalNAc | bind | – | – |
| Glycan 4: Ceruloplasmine mixture of bi and tri- and tetra-antenary N-glycans (protein, UniProt P00450 20-1065, looked up, N-glycans) Ceruloplasmin: KEKHYYIGIIETTWDYASDHGEKKLISVDTEHSNIYLQNGPDRIGRLYKKALYLQYTDETFRTTIEKPVWLGFLGPIIKAETGDKVYVHLKNLASRPYTFHSHGITYYKEHEGAIYPDNTTDFQRADDKVYPGEQYTYMLLATEEQSPGEGDGNCVTRIYHSHIDAPKDIASGLIGPLIICKKDSLDKEKEKHIDREFVVMFSVVDENFSWYLEDNIKTYCSEPEKVDKDNEDFQESNRMYSVNGYTFGSLPGLSMCAEDRVKWYLFGMGNEVDVHAAFFHGQALTNKNYRIDTINLFPATLFDAYMVAQNPGEWMLSCQNLNHLKAGLQAFFQVQECNKSSSKDNIRGKHVRHYYIAAEEIIWNYAPSGIDIFTKENLTAPGSDSAVFFEQGTTRIGGSYKKLVYREYTDASFTNRKERGPEEEHLGILGPVIWAEVGDTIRVTFHNKGAYPLSIEPIGVRFNKNNEGTYYSPNYNPQSRSVPPSASHVAPTETFTYEWTVPKEVGPTNADPVCLAKMYYSAVEPTKDIFTGLIGPMKICKKGSLHANGRQKDVDKEFYLFPTVFDENESLLLEDNIRMFTTAPDQVDKEDEDFQESNKMHSMNGFMYGNQPGLTMCKGDSVVWYLFSAGNEADVHGIYFSGNTYLWRGERRDTANLFPQTSLTLHMWPDTEGTFNVECLTTDHYTGGMKQKYTVNQCRRQSEDSTFYLGERTYYIAAVEVEWDYSPQREWEKELHHLQEQNVSNAFLDKGEFYIGSKYKKVVYRQYTDSTFRVPVERKAEEEHLGILGPQLHADVGDKVKIIFKNMATRPYSIHAHGVQTESSTVTPTLPGETLTYVWKIPERSGAGTEDSACIPWAYYSTVDQVKDLYSGLIGPLIVCRRPYLKVFNPRRKLEFALLFLVFDENESWYLDDNIKTYSDHPEKVNKDDEEFIESNKMHAINGRMFGNLQGLTMHVGDEVNWYLMGMGNEIDLHTVHFHGHSFQYKHRGVYSSDVFDIFPGTYQTLEMFPRTPGIWLLHCHVTDHIHAGMETTYTVLQNEDTKSG | bind and significantly higher levels | – | – |
